Measured values as given in paper PMC5908295 (Oncotarget, 2018).
Read-outs that look alike come from different tables or passages of the source.

Tests used:
[1] = test system: SKM-1; assay: MTS viability assay, 72 h; settings: SKM-1, 72 h; for CC50: read-out: LC50
Protocol: (§4) On the same day, 50 μL of medium containing tested inhibitor was added to the wells. Each compound was tested at 8 concentrations, in triplicates. As a negative control, the medium containing 0.1% DMSO was used. […] Staurosporine was used at 10 μM as a positive control. One the day of drug addition, basal signal from untreated cells was measured from in triplicate to determine time zero (T0). […] GI50 and LC50 values were extrapolated from a variable (four-parameter) dose-response curve fitted in GraphPad Prism.

[2] = test system: MOLM-16; assay: MTS viability assay, 72 h
Protocol: as §4

[3] = test system: MOLM-16 (FLT3-WT) cells; assay: Western blot of FLT3/PIM downstream signaling; format: cell-based; settings: MOLM-16, 4 hours
Protocol: (§1) Thereafter, we assessed the activities of FLT3-ITD – induced key pro-survival signaling pathways; STAT5, RAF/MEK/ERK and PI3K/AKT (Figure 3). […] Since the expression of a major anti-apoptotic BCL2 family member, MCL1, is regulated by translation, and PIM kinases regulate protein synthesis through 4EBP1, we also assessed the abundance of MCL1.
(§2) Cells were collected, washed twice with cold PBS, and lysed in RIPA buffer and kept on ice for 10 min. Tumor specimens from xenograft studies were homogenized in RIPA buffer using OMNI TH Tissue Homogenizer and kept on ice for 30 min. After incubation, cell and tumor lysates were centrifuged at 13,000×g at 4°C for 10 min and the supernatants were stored at −80°C until use. Protein concentration was measured using the Bradford method. For SDS-PAGE, 50 μg of protein in the Laemmli sample buffer was loaded onto 10% polyacrylamide gels and electrophoresed. Thereafter, proteins were transferred onto polyvinylidene fluoride (PVDF) membranes (Millipore). After blocking with 5% non-fat dry milk/TBS-T or 2% BSA/TBS-T, membranes were incubated with specific primary antibodies (listed in Supplementary Table 2) at 4 °C overnight. After extensive washing in PBS-T, membranes were incubated for 60 min with appropriate secondary peroxidase-conjugated IgG. The immunoreactive proteins were detected using an enhanced chemiluminescence (ECL) substrate (GE Healthcare) and visualized with Hyperfilm-ECL (GE Healthcare Biosciences).

[4] = test system: MV-4-11 (FLT3-ITD+) cells; assay: Western blot of FLT3/PIM downstream signaling; format: cell-based; settings: MV-4-11, 4 hours
Protocol: as §1, §2

[5] = test system: MOLM-13 xenografts; assay: MOLM-13 subcutaneous xenograft; format: in vivo; settings: MOLM-13, SCID mice; AC220 10 mg/kg QD, other doses not given
Text: (§3) All animals were handled in strict accordance with good animal practice as defined by the relevant national and local animal welfare bodies. SCID and SCID/beige C.B-17 mice were provided by Harlan Laboratories or Charles River Laboratories, and were maintained in pathogen free conditions. For the xenograft experiments, age-matched (9-11 weeks old) females were used. 5×10^6 of MV-4-11 or MOLM-16 cells were suspended in a mixture (1:1, v:v) of PBS with Matrigel (BD Biosciences,) and injected subcutaneously (sc), in a total volume of 100 μL, above the groin on the right hind limb. For MOLM-13 and KG-1 cells, a mixture (3:1, v:v) of PBS and Matrigel HC (BD Bioscience,) was used to inject 5 × 10^6 of cell per mouse subcutaneously (sc), in a total volume of 100 μL. When tumors reached 100-130 mm^3, mice were randomized into uniform groups (6-9 mice per group) and subsequently administered the compound. […] At the end of the experiment, mice were anesthetized with isofluran and blood samples for total cell counts and biochemistry were obtained by retro-orbital bleeding. […] 5×10^6 cells suspended in a mixture (3:1, v:v) of PBS and Matrigel were injected as described above. […] Tumor volume was monitored every second day and calculated using the formula: TV = (a^2×b)/2, where “a” is the short axis in millimeters, and “b” is the long axis in millimeters. Body weight was assessed every day.

[6] = test system: MV-4-11; assay: Drug interactions (combination index), MTS; format: cell-based; settings: MV-4-11
Protocol: and AC220 in AML cell lines was assessed using an MTS assay. Cells viability was measured after 72 h incubation with three-fold serial dilutions of compounds, starting at 10 µM concentration. Obtained data were presented as percentage of viable cells compared with control (untreated) cells viability. Error bars indicate SD.
11 cells. Combination index (CI) are shown on the Y axis and compound concentrations are shown on X and Z axes. Values […] and below 0.7- a synergy between tested compounds. Values above 1 indicate an antagonistic effect.
(1 picture or pasted object on this page, not shown here)

[7] = test system: MOLM-6; assay: MTS viability assay, 72 h; settings: for CC50: read-out: LC50
Protocol: (§5) 15-25 ×10^3 of MV-4-11, MOLM-13, MOLM-14, MOLM-16, KG-1, Eol-1, SKM-1, PL-21, GDM-1, SKNO-1, RS4;11, Kasumi-3 and Kasumi-6 cells were seeded in 150 μL of culture medium onto individual wells in a 96 well plates, in triplicates. On the same day, 50 μL of medium containing tested inhibitor was added to the wells. Each compound was tested at 8 concentrations, in triplicates. As a negative control, the medium containing 0.1% DMSO was used. […] Staurosporine was used at 10 μM as a positive control. One the day of drug addition, basal signal from untreated cells was measured from in triplicate to determine time zero (T0). […] GI50 and LC50 values were extrapolated from a variable (four-parameter) dose-response curve fitted in GraphPad Prism.

[8] = test system: MOLM-13; assay: MTS viability assay, 72 h; settings: MOLM-13, 72 h; for CC50: read-out: LC50
Protocol: as §5

[9] = test system: MOLM-14 cells transduced with FLT3 TKD point mutations (D835Y, D835V and F691L); assay: MTS viability of MOLM-14 cells with FLT3 alleles; format: cell-based; settings: 72 h
[10] = test system: SKNO-1; assay: MTS viability assay, 72 h; settings: SKNO-1, 72 h
Protocol: as §5

[11] = test system: PL-21; assay: MTS viability assay, 72 h; settings: PL-21, 72 h
Protocol: as §5

[12] = test system: KG-1 (FLT3-WT) tumor; assay: KG-1 subcutaneous xenograft; format: in vivo; settings: KG-1, SCID mice; doses not given
Text: as §3

[13] = test system: KASUMI-6; assay: MTS viability assay, 72 h
Protocol: as §5

[14] = test system: EOL-1; assay: MTS viability assay, 72 h
Protocol: as §5

[15] = test system: GDM-1; assay: MTS viability assay, 72 h; settings: GDM-1, 72 h
Protocol: as §5

[16] = test system: KG-1; assay: MTS viability assay, 72 h; settings: KG-1, 72 h; for CC50: read-out: LC50
Protocol: as §5

[17] = test system: OCI-AML-2; assay: MTS viability assay, 72 h
Protocol: as §4

[18] = test system: RS4;11; assay: MTS viability assay, 72 h; settings: for CC50: read-out: LC50
Protocol: as §5

[19] = test system: SIG-M5; assay: MTS viability assay, 72 h; settings: SIG-M5, 72 h; for CC50: read-out: LC50
Protocol: as §4

[20] = test system: MV-4-11; assay: MTS viability assay, 72 h
Protocol: as §4

[21] = test system: KASUMI-3; assay: MTS viability assay, 72 h; settings: for CC50: read-out: LC50
Protocol: as §5

[22] = test system: OCI-AML-3; assay: MTS viability assay, 72 h; settings: OCI-AML-3, 72 h
Protocol: as §5

[23] = test system: MOLM-14; assay: MTS viability assay, 72 h; settings: Homo sapiens, MOLM-14, 72 h
Protocol: as §5

With `N[C@@H]1CCCN(c2c(/C=C3\SC(=O)NC3=O)cccc2-c2ccccc2)C1` [AZD1208] the GI50 ([1]; dilutions starting at 10 µM) was over 10000 nM, the CC50 ([1]; 50% death relative to T0) was over 10000 nM and the GI50 ([2]; MOLM-16, 72 h, dilutions starting at 10 µM) was 16 nM. The “S6 (S235/236) phosphorylation” value [3] was “profound inhibition”, the MCL1 abundance [4] was “did not alter” and the STAT5 signaling [4] was “did not change”. For the same molecule, the TGI [5] was 19.5%, the “combination of AZD1208 and AC220” value [6] was “synergistic effect” and the GI50 ([7]; MOLM-6, 72 h, dilutions starting at 10 µM) was 973 nM. For the same molecule, the CC50 ([7]; MOLM-6, 72 h, 50% death relative to T0) was over 10000 nM, the GI50 ([8]; dilutions starting at 10 µM) was 306 nM and the CC50 ([8]; 50% death relative to T0) was over 10000 nM. For the same molecule, the “viability of MOLM-14 cells with FLT3-TKD mutants versus FLT3-ITD or parental cells” value [9] was “only marginally affected the viability”, the GI50 ([10]; dilutions starting at 10 µM) was 5 nM and the GI50 ([11]; dilutions starting at 10 µM) was over 10000 nM. It also gave a TGI [12] of 59.9%, a GI50 ([13]; KASUMI-6, 72 h, dilutions starting at 10 µM) of 19 nM and a GI50 ([14]; EOL-1, 72 h, dilutions starting at 10 µM) of 89 nM. It also gave a GI50 ([15]; dilutions starting at 10 µM) of 506 nM, a GI50 ([16]; dilutions starting at 10 µM) of 20 nM and a CC50 ([16]; 50% death relative to T0) of over 10000 nM. The GI50 ([17]; OCI-AML-2, 72 h, dilutions starting at 10 µM) was 333 nM, the GI50 ([18]; RS4;11, 72 h, dilutions starting at 10 µM) was 4220 nM and the CC50 ([18]; RS4;11, 72 h, 50% death relative to T0) was over 10000 nM. It also gave a GI50 ([19]; dilutions starting at 10 µM) of over 10000 nM, a CC50 ([19]; 50% death relative to T0) of over 10000 nM and a GI50 ([20]; MV-4-11, 72 h, dilutions starting at 10 µM) of 1460 nM. The GI50 ([21]; KASUMI-3, 72 h, dilutions starting at 10 µM) was 57 nM, the CC50 ([21]; KASUMI-3, 72 h, 50% death relative to T0) was 4630 nM and the GI50 ([22]; dilutions starting at 10 µM) was over 10000 nM.
`CC(C)(C)c1cc(NC(=O)Nc2ccc(-c3cn4c(n3)sc3cc(OCCN5CCOCC5)ccc34)cc2)no1` [AC220] gave a GI50 ([1]; Homo sapiens) of 1130 nM, a CC50 ([1]; Homo sapiens) of 7790 nM and a GI50 ([2]; MOLM16, 72 h) of 688 nM. The CC50 ([2]; MOLM16, 72 h, read-out: LC50) was 8230 nM, the GI50 [23] was under 5 nM and the CC50 ([23]; read-out: LC50) was 196 nM. For the same molecule, the GI50 ([7]; 72 h) was 681 nM, the CC50 ([7]; 72 h) was over 10000 nM and the GI50 ([8]; Homo sapiens) was under 5 nM. It also gave a CC50 ([8]; Homo sapiens) of 42 nM, a GI50 [10] of 6 nM and a GI50 [11] of 412 nM. It also gave a GI50 ([13]; 72 h) of under 5 nM, a GI50 ([14]; Homo sapiens, EOL1, 72 h) of under 5 nM and a GI50 ([15]; Homo sapiens) of 33 nM. For the same molecule, the GI50 ([16]; Homo sapiens) was 210 nM, the CC50 ([16]; Homo sapiens) was over 10000 nM and the GI50 ([17]; Homo sapiens, OCI-AML2, 72 h) was 499 nM. For the same molecule, the CC50 ([17]; Homo sapiens, OCI-AML2, 72 h, read-out: LC50) was 1240 nM, the GI50 ([18]; Homo sapiens, RS4-11, 72 h) was 132 nM and the CC50 ([18]; Homo sapiens, RS4-11, 72 h) was 6960 nM. It also gave a GI50 ([19]; Homo sapiens) of 558 nM, a CC50 ([19]; Homo sapiens) of 3090 nM and a GI50 ([20]; Homo sapiens, MV4-11, 72 h) of under 5 nM. For the same molecule, the CC50 ([20]; Homo sapiens, MV4-11, 72 h, read-out: LC50) was under 5 nM, the GI50 ([21]; Kasumi-3, 72 h) was under 5 nM and the CC50 ([21]; Kasumi-3, 72 h) was under 5 nM. The GI50 ([22]; Homo sapiens) was 1180 nM and the CC50 ([22]; Homo sapiens, read-out: LC50) was over 10000 nM.
